What was measured:
Id1-E47 interaction = target: T1, Id1-E47 interaction (Homo sapiens, UniProt P41134); assay: Gel shift assay: E47 binding to MCK E-box oligonucleotide in the presence of Id1; assay type: biochemical
T1 sequence (P41134 1-155): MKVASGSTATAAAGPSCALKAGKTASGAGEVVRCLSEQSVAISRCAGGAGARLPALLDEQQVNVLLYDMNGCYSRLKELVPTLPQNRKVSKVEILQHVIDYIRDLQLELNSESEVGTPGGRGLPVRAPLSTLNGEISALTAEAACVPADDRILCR
Experimental: Gel shift assays were performed using the 376 small molecules identified in the in silico drug screen and peptide synthesis. The identified compounds were then dissolved in 5% DMSO to a concentration of 100 μm and reacted in binding mixtures that contained E47, Id1 and Mck. As controls, recombinant human E47 was used in a standard binding reaction that contained ^32P labeled MCK double stranded oligonucleotides containing consensus E-Box response element (MCK-5′ TTGATCCCCCCAACACCTGCTGCCTGAAGCT (SEQ ID NO. 1)) and 100 ng of Id1 was added to a standard binding reaction using E47 and p32 labeled MCK. After 30 minutes of incubation, the reaction mixtures were resolved on a 5% non-denaturing polyacrylamide gel and autoradiographed.

DU145 cells = assay: Cell survival/morphology by microscopy, DU145 prostate cancer cells; assay type: cell-based, human; details: concentration of 1 um (FIG. 6)
Experimental: Prostate cancer cell lines DU145 and PC3 (in 10% BCS) were obtained from American Type Culture Collection (Rockville, Md.). The cells were cultured in Ham's F12 (Gibco, Carlsbad, Calif.) medium containing 10% BCS (Hyclone, Logan, Utah) and appropriate antibiotics (pen/strep, fungizaone, and gentamycin (Invitrogen Inc., Carlsbad, Calif.). All cells were cultured at 37° C. in a fully humidified atmosphere containing 5% CO2.
At 50% confluence, the cells were treated with either 100 μM DMSO, 1000 mOsmol of urea+NaCL, 1 μM N-[3-(1,3-benzodioxol-5-yl)-3-(2-methoxyphenyl)propyl]-N-benzylpropanamide, 10 μM N-[3-(1,3-benzodioxol-5-yl)-3-(2-methoxyphenyl)propyl]-N-benzylpropanamide, and 100 μM N-[3-(1,3-benzodioxol-5-yl)-3-(2-methoxyphenyl)propyl]-N-benzylpropanamide, 1 μM N′-(4-isopropylphenyl)-1-benzothiophene-2-carbohydrazide, 10 μM N′-(4-isopropylphenyl)-1-benzothiophene-2-carbohydrazide, or 100 μM N′-(4-isopropylphenyl)-1-benzothiophene-2-carbohydrazide. The cell morphology and growth was monitored daily for 1 week by microscopy for changes in morphology or cell death. Apoptosis was determined by measuring caspase 3 and caspase 7 activities using the Caspase-Glo 3/7 Assay system from Promega (Madison, Wis.).

Question: For `CC(C)c1ccc(NNC(=O)c2cc3ccccc3s2)cc1` [N′-(4-isopropylphenyl)-1-benzothiophene-2-carbohydrazide], which “dose dependence of effect in the gel shift assay” value (Id1-E47 interaction) is on record?
Answer: Its value is “dose-proportionality”.

Question: And the “anti-Id activity in the gel shift assay (shifted band of bound E47-MCK in the presence of Id1)” value (Id1-E47 interaction; compound 100 μm in 5% DMSO, E47, Id1 and MCK, 30 minutes)?
Answer: The value was “restore the binding between E47-MCK in the presence of Id1”.

Question: And the “survival of DU145 cells” value (DU145 cells)?
Answer: The value was “able to induce cell death”.

— patent US8138356B2, “Chemical inhibitors of inhibitors of differentiation” (Angiogeney, Inc., priority 2008, dated 2012)
